Experimental data reported in patent EP4790046A1, “NOVEL COMPOUND DERIVED FROM MYRISTICA FRAGRANS, AND ANTICANCER COMPOSITION COMPRISING SAME” (Korea Institute of Science and Technology, priority 2023, dated 2025).
Like-named read-outs stand apart in the source and are kept apart here.

Tests used:
[1] = tested on: SW48 cells; assay: Xenograft mouse model, tumor volume, SW48 (colorectal cancer); assay type: in vivo, BALB/c/nu/nu mice; conditions: 10 mg/kg intraperitoneal on alternate days, to day 27
Procedure: (§1) Tumor volume and body weight were measured twice weekly.

[2] = mouse, in vivo, ip, 10 mg/kg
Procedure: Female BALB/c/nu/nu mice (5 weeks old) were used in the in vivo model.
As shown in the schematic diagram of Figure 16a, 23132/87 and SW48 cells were injected subcutaneously into mice at densities of 5 × 10^6 cells/mouse and 3 × 10^6 cells/mouse, respectively. […] Tumor volume and body weight were measured twice weekly. On day 27, mice were sacrificed, and major organs (liver, spleen, kidney) and tumor tissue were collected and stored for further analysis. Tumor volume was calculated using the following formula: Volume (mm^3) = (Length) × (Width)^2 × 1/2.

[3] = tested on: 23132/87 cells; assay: Apoptosis, Annexin V-FITC/PI staining, flow cytometry, 23132/87; assay type: cell-based; conditions: for Apoptosis distribution (%), Q2: Annexin V-FITC+/PI+ (late apoptosis and cell death); for Apoptosis distribution (%), Q3: Annexin V-FITC+/PI- (early apoptosis); for Apoptosis distribution (%), Q4: Annexin V-FITC-/PI- (healthy population)
Procedure: (§2) 23132/87 and SW48 cells were seeded at densities of 5 × 10^5 and 7 × 10^5 cells/well in a 6-well plate and cultured for 24 hours. […] After treatment, cells were harvested and stained using the Annexin V-FITC Early Apoptosis Detection Kit (6592, Cell Signaling Technology, USA). Flow cytometry (BD FACSVerse Cell Analyzer and FlowJo software, BD Biosciences, USA) was applied to analyze the samples based on 10,000 events.
(§3) Student's t-test was performed for statistical analysis between the 2 concentrations of the same compound.

[4] = tested on: caspase-3 and -7; assay: Caspase-3/7 activity assay (Caspase-Glo 3/7), SW48 cells; assay type: cell-based; conditions: for Caspase-3/7 activity: RLU relative to DMSO; for caspase-3/7 signal higher than DMSO: SW48
Procedure: (§4) Apoptosis can be activated and progress through either the intrinsic or extrinsic pathway, but caspase-3, the executioner caspase, is involved in most cases. […] Since this enzyme activity is transient, analysis was performed at two time points: 6 hours and 12 hours post-treatment.
(§5) Specifically, the Caspase-3/7 activity assay was performed with slight modifications to the manufacturer's protocol (Promega, USA). Briefly, cells were seeded at a density of 5 × 10^3 cells/well in a 96-well plate, cultured for 24 hours, and then treated with the compound at an appropriate concentration for 6 or 12 hours. After treatment, Caspase-Glo 3/7 reagent was added in equal volumes to the treated samples. The plate was then shaken and incubated at room temperature for 2 hours. Enzyme activity was determined by measuring relative light units (RLU) using a Varioskan LUX Multimode Microplate Reader (Thermo Fisher Scientific, USA).

[5] = tested on: SNU-719; assay: alamarBlue cell viability (survival rate, IC50), SNU-719; assay type: cell-based
Source text: (§6) A p-value < 0.05 was considered statistically significant.

[6] = tested on: SNU201; assay: alamarBlue cell viability (survival rate), SNU201; assay type: cell-based; conditions: SNU201 (glioblastoma), compound 10 µM, 48 hours
Source text: as §6

[7] = tested on: MiaPaCa-2; assay: alamarBlue cell viability (survival rate), MiaPaCa-2; assay type: cell-based; conditions: MiaPaCa-2 (pancreatic cancer), compound 10 µM, 48 hours
Source text: as §6

[8] = tested on: 23132/87 cells; assay: Xenograft mouse model, tumor volume, 23132/87 (gastric cancer); assay type: in vivo, BALB/c/nu/nu mice; conditions: 10 mg/kg intraperitoneal on alternate days, to day 27
Procedure: as §1

[9] = tested on: SNU-81; assay: alamarBlue cell viability (survival rate, IC50), SNU-81; assay type: cell-based
Source text: as §6

[10] = tested on: 23132/87 cell line; assay: Cell cycle distribution (PI/RNase staining, flow cytometry), 23132/87; assay type: cell-based; conditions: 48 hours
Procedure: Cell cycle distribution was analyzed by DNA staining using FxCycle PI/RNase Staining Solution (Invitrogen, USA). The 23132/87 and SW48 cell lines was seeded at densities of 5 × 10^5 and 7 × 10^5cells/well, respectively, in 6-well plates. After 24 hours of culture, cells were starved overnight in serum-free medium. […] Cells were then harvested, fixed with 70% ethanol, and stained with PI/RNase solution. Samples were analyzed by flow cytometry (BD FACSVerse Cell Analyzer and FlowJo software, BD Biosciences, Franklin Lakes, NJ, USA) based on 10,000 events.
as §3

[11] = tested on: SW48 cells; assay: Apoptosis, Annexin V-FITC/PI staining, flow cytometry, SW48; assay type: cell-based; conditions: for Apoptosis distribution (%), Q1 / Apoptosis distribution (%), Q2 / Apoptosis distribution (%), Q3 / Apoptosis distribution (%), Q4: 20 hours; for Apoptosis distribution (%), Q2: Annexin V-FITC+/PI+ (late apoptosis and cell death); for Apoptosis distribution (%), Q3: Annexin V-FITC+/PI- (early apoptosis); for Apoptosis distribution (%), Q4: Annexin V-FITC-/PI- (healthy population)
Procedure: as §2, §3

[12] = tested on: 23132/87; assay: alamarBlue cell viability (survival rate, IC50), 23132/87; assay type: cell-based; conditions: 23132/87 (gastric cancer)
Source text: as §6

[13] = tested on: SW48; assay: alamarBlue cell viability (survival rate, IC50), SW48; assay type: cell-based; conditions: SW48 (colorectal cancer)
Source text: as §6

[14] = tested on: SNU466; assay: alamarBlue cell viability (survival rate), SNU466; assay type: cell-based; conditions: SNU466 (glioblastoma), compound 10 µM, 48 hours
Source text: as §6

[15] = tested on: various cancer cell lines; assay: alamarBlue cell viability, statements across the cell line panel
Procedure: AGS, SW48, HepG2, and MiaPaCa-2 was purchased from ATCC (American Type Culture Collection, USA), SNU cell lines from the Korean Cell Line Bank (KCLB, Korea), and 23132/87 from the Leibniz Institute DSMZ - German Collection of Microorganisms and Cell Cultures GmbH (DSMZ, Germany). All cell lines were cultured in RPMI-1640 medium (HyClone, USA) supplemented with 10% FBS (Gibco, USA) and 1% penicillin-streptomycin (HyClone, USA) under conditions of 5% CO2, 37°C.
Cells were seeded at a density of 5 × 10^3cells/well in a 96-well plate for 24 hours, then treated with the compound at an appropriate concentration (10 µM) for 48 hours. After treatment, alamarBlue reagent was added at a volume ratio of 1/10 of the treatment volume and incubated for 4 hours in a 37°C cell incubator (protected from direct light). Cell viability was then determined by measuring absorbance values at 570 nm and 600 nm using a microplate reader. The anticancer effects of candidate compounds were evaluated by assessing the cell viability (%) of cells treated at specific concentrations and the half-maximal inhibitory concentration (IC50) of each natural product. Doxorubicin and oxaliplatin were used as positive controls for gastric and colorectal cancer, respectively.
Statistical analysis was performed using R software (version 4.2.2) (R Core Team). Differences between groups were assessed using student's t-test or 1-way ANOVA followed by post-hoc Tukey HSD test. A p-value < 0.05 was considered statistically significant.
Further, to measure the IC50 values against six cancer cell lines.

[16] = tested on: caspase-3 and -7; assay: Caspase-3/7 activity assay (Caspase-Glo 3/7), 23132/87 cells; assay type: cell-based; conditions: for Caspase-3/7 activity: RLU relative to DMSO; for caspase-3/7 RLU increase over DMSO: 23132/87
Procedure: as §4, §5

SMILES: C=CCc1cc(OC)c(O[C@H](C)[C@H](c2ccc(O)c(OC)c2)c2ccc(O)c(C(=O)CCCCCCCCc3ccc(O)cc3)c2O)c(OC)c1 [Compound 3, Myricone C]
- tumor growth [1]: suppressed compared to the control group
- body weight and the weights of major organs (liver, spleen, kidneys) [2]: remained stable
- Apoptosis distribution (%), Q2 ([3]; 23132/87, 5 µM, 20 hours): 9.35%
- Apoptosis distribution (%), Q3 ([3]; 23132/87, 5 µM, 20 hours): 5.76%
- Apoptosis distribution (%), Q4 ([3]; 23132/87, 5 µM, 20 hours): 81.57%
- Apoptosis distribution (%), Q2 ([3]; 23132/87, 10 µM, 20 hours): 10.47%
- Apoptosis distribution (%), Q3 ([3]; 23132/87, 10 µM, 20 hours): 10.97%
- Apoptosis distribution (%), Q4 ([3]; 23132/87, 10 µM, 20 hours): 75.00%
- Q3 population ([3]; 23132/87, 5 µM): 5.76% ± 0.35%
- Apoptosis distribution (%), Q1 ([3]; 23132/87, 5 µM, 20 hours): 3.30%
- Q3 ratio compared with DMSO control ([3]; 23132/87, 5 µM, 20 hours): significantly increased
- Q3 population ([3]; 23132/87, 10 µM): 10.97% ± 0.12%
- Q4 distribution reduction compared to the control group ([3]; 23132/87, 10 µM): 8.27%
- Apoptosis distribution (%), Q1 ([3]; 23132/87, 10 µM, 20 hours): 3.59%
- Q2 ratio increase compared with DMSO control ([3]; 23132/87, 10 µM, 20 hours): about 2%
- Q3 ratio increase compared with DMSO control ([3]; 23132/87, 10 µM, 20 hours): ~6%
- Q2 and Q3 with increasing concentrations ([3]; 23132/87, 5 to 10 µM): significantly increased
- Caspase-3/7 activity ([4]; SW48, 5 µM, 6 h): 1.10 fold
- Caspase-3/7 activity ([4]; SW48, 5 µM, 12 h): 2.37 fold
- Caspase-3/7 activity ([4]; SW48, 10 µM, 6 h): 1.89 fold
- Caspase-3/7 activity ([4]; SW48, 10 µM, 12 h): 2.02 fold
- caspase-3/7 signal higher than DMSO ([4]; high concentration (10 µM), 6 hours): 2.37 fold
- caspase-3/7 signal higher than DMSO ([4]; low concentration (5 µM), 12 hours): 1.89 fold
- IC50 ([5]; SNU719 (gastric cancer), 2.5-40 µM, positive control = doxorubicin): 2930 nM
- Cancer cell line survival rate (%) ([5]; SNU-719 (gastric cancer), compound 10 µM, 48 hours): 4.30%
- Cancer cell line survival rate (%) [6]: 1.17%
- Cancer cell line survival rate (%) [7]: 2.53%
- tumor volume [8]: smallest tumor volume was observed starting on day 13
- IC50 ([9]; SNU81 (colorectal cancer), 2.5-40 µM, positive control = oxaliplatin, read-out: IC50): 9840 nM
- IC50 ([9]; SNU81 cells, compound 2.5-40 µM, read-out: IC50 values): 9840 nM
- Cancer cell line survival rate (%) ([9]; SNU-81 (colorectal cancer), compound 10 µM, 48 hours): 47.08%
- Cell cycle distribution, G1 ([10]; 23132/87, 5 µM): 63.00%
- Cell cycle distribution, G2/M ([10]; 23132/87, 5 µM): 6.79%
- Cell cycle distribution, S ([10]; 23132/87, 5 µM): 21.23%
- Cell cycle distribution, Sub G1 ([10]; 23132/87, 5 µM): 9.15%
- Cell cycle distribution, G1 ([10]; 23132/87, 10 µM): 68.93%
- Cell cycle distribution, G2/M ([10]; 23132/87, 10 µM): 6.19%
- Cell cycle distribution, S ([10]; 23132/87, 10 µM): 14.40%
- Cell cycle distribution, Sub G1 ([10]; 23132/87, 10 µM): 10.45%
- G1 phase increase compared to DMSO ([10]; 23132/87, 10 µM): about 10%
- G2/M phase decrease compared to DMSO ([10]; 23132/87, 10 µM): about 4%
- Apoptosis distribution (%), Q1 ([11]; SW48, 5 µM): 7.41%
- Apoptosis distribution (%), Q2 ([11]; SW48, 5 µM): 13.80%
- Apoptosis distribution (%), Q3 ([11]; SW48, 5 µM): 13.73%
- Apoptosis distribution (%), Q4 ([11]; SW48, 5 µM): 65.10%
- Apoptosis distribution (%), Q1 ([11]; SW48, 10 µM): 4.97%
- Apoptosis distribution (%), Q2 ([11]; SW48, 10 µM): 22.43%
- Apoptosis distribution (%), Q3 ([11]; SW48, 10 µM): 18.77%
- Apoptosis distribution (%), Q4 ([11]; SW48, 10 µM): 53.87%
- Q2 ratio ([11]; SW48, 5 µM): 13.80% ± 0.65%
- Q3 ratio ([11]; SW48, 5 µM): 13.73% ± 0.92%
- increase in the Q2 population, dose-based comparison ([11]; SW48, 5 µM to 10 µM): over 8%
- Q2 (Annexin V-FITC+/PI+) ([11]; SW48, 10 µM): 22.43% ± 0.30%
- Q2 increase compared to the control ([11]; SW48, 10 µM): over 8%
- Q3 ratio ([11]; SW48, 10 µM): 18.77% ± 1.07%
- Q4 distribution reduction compared to the control group ([11]; SW48, 10 µM): 9.43%
- apoptotic and dead cell population (Q2 and Q3) increase over DMSO ([11]; SW48, 10 µM): ~10%
- Q4 ratio reduction on changing the concentration ([11]; SW48, from 5 µM to 10 µM): approximately 11.23%
- IC50 ([12]; 2.5-40 µM, positive control = doxorubicin): 2070 nM
- Cancer cell line survival rate (%) ([12]; compound 10 µM, 48 hours): 1.77%
- IC50 ([13]; Homo sapiens, 2.5-40 µM, positive control = oxaliplatin): 2550 nM
- Cancer cell line survival rate (%) ([13]; compound 10 µM, 48 hours): 0.01%
- Cancer cell line survival rate (%) [14]: 1.91%
- anticancer activity (comparison of IC50 values among compounds) ([15]; six cancer cell lines, 2.5-40 µM): strongest anticancer activity
- anticancer activity ([15]; various cancer cell lines): high anticancer activity
- Caspase-3/7 activity ([16]; 23132/87, 5 µM, 6 h): 0.58 fold
- Caspase-3/7 activity ([16]; 23132/87, 5 µM, 12 h): 1.74 fold
- Caspase-3/7 activity ([16]; 23132/87, 10 µM, 6 h): 1.81 fold
- Caspase-3/7 activity ([16]; 23132/87, 10 µM, 12 h): 1.20 fold
- caspase-3/7 RLU increase over DMSO ([16]; 5 µM, 12 hours): 1.74 fold
- caspase-3/7 RLU increase over DMSO ([16]; 10 µM, 6 hours): 1.81 fold
